Results on 32 molecules are retold here after US8691804B2 (Evotec AG, priority 2008, dated 2014).

Bounds are passed on as bounds.

Broadly, the IC50 is the point on the concentration scale where inhibition reaches its midpoint.

T1 sequence (Q9Y5N1 whole entry): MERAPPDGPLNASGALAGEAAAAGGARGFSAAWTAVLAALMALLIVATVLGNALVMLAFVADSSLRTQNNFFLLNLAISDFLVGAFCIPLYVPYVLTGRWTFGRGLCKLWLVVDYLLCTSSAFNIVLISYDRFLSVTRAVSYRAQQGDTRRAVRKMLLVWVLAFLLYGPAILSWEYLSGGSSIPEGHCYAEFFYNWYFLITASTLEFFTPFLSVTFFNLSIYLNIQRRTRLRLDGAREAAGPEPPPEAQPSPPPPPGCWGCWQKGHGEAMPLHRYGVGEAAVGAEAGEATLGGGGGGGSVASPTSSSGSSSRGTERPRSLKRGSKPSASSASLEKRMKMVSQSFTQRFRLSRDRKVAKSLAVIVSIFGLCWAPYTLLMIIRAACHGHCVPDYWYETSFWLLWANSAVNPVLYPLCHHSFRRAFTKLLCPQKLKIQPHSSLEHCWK

This test has as its target T1, human H3 receptors (Homo sapiens, UniProt Q9Y5N1).
T1 construct: host or cells: CHO-K1
Put plainly: cAMP quantification assay for human H3 receptor testing. It is filed as cell-based. The following applies: CHO-K1 cells expressing human H3 receptors; inhibition of agonist-induced decrease of cAMP; 100 nM histamine, 10 μM forskolin; read-out: Potency range (IC50 values). Summed up:
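CHO-K1 cells expressing human H3 (10,000/well) were preincubated 30 min at 37 °C with compound in PBS containing 1 mM IBMX and 0.03% BSA. They were then challenged 30 min with agonist solution (100 nM histamine plus 10 μM forskolin). cAMP was quantified by enzyme-complementation luminescence, with 8 concentrations in triplicate at 1% DMSO.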
`O=C(N1CCCN(C2CCC2)CC1)N1CC(Oc2ccc(Cl)cn2)C1` [Example 77, 1-({3-[(5-chloropyridin-2-yl)oxy]azetidin-1-yl}carbonyl)-4-cyclobutyl-1,4-diazepane]: the IC50 is < 100 nM.

In the case of `O=C(C1CN(C(=O)N2CCCN(C3CCC3)CC2)C1)N1CCOCC1` [Example 125, 1-cyclobutyl-4-{[3-(morpholin-4-ylcarbonyl)azetidin-1-yl]carbonyl}-1,4-diazepane], the half-maximal inhibitory concentration (IC50) was < 100 nM.

As for `CC(C)(O)c1ccc(OC2CN(C(=O)N3CCCN(C4CCC4)CC3)C2)cc1F` [Example 60, 2-[4-({1-[(4-cyclobutyl-1,4-diazepan-1-yl)carbonyl]azetidin-3-yl}oxy)-2-fluorophenyl]propan-2-ol], the half-inhibitory concentration (IC50) is < 100 nM.

In the case of `CN(C)C(=O)c1ccc(OC2CN(C(=O)N3CCCN(C4CCC4)CC3)C2)cn1` [Example 6, 5-({1-[(4-cyclobutyl-1,4-diazepan-1-yl)carbonyl]azetidin-3-yl}oxy)-N,N-dimethylpyridine-2-carboxamide], the 50% inhibitory concentration (IC50) is < 100 nM.

Regarding `CC(C)N1CCCN(C(=O)N2CC(Oc3ccc(C(C)(C)O)nc3)C2)CC1` [Example 158, 2-{5-[(1-{[4-(1-methylethyl)-1,4-diazepan-1-yl]carbonyl}azetidin-3-yl)oxy]pyridin-2-yl}propan-2-ol], the IC50 was < 100 nM.

For the molecule `Cc1cc(OC2CN(C(=O)N3CCCN(C4CCC4)CC3)C2)cc(C)n1` [Example 69, 1-cyclobutyl-4-({3-[(2,6-dimethylpyridin-4-yl)oxy]azetidin-1-yl}carbonyl)-1,4-diazepane], the concentration for half-maximal inhibition (IC50) was < 100 nM.

Take `O=C(N1CCCN(C2CCC2)CC1)N1CC(Oc2ccc(-n3ccnc3)cc2)C1` [Example 26, 1-cyclobutyl-4-({3-[4-(1H-imidazol-1-yl)phenoxy]azetidin-1-yl}carbonyl)-1,4-diazepane]: the IC50 was < 100 nM.

For `O=C(N1CCCN(C2CCC2)CC1)N1CC(Oc2ccccc2C(F)(F)F)C1` [Example 29, 1-cyclobutyl-4-({3-[2-(trifluoromethyl)phenoxy]azetidin-1-yl}carbonyl)-1,4-diazepane], the IC50 is < 100 nM.

`COc1cncc(OC2CN(C(=O)N3CCCN(C4CCC4)CC3)C2)n1` [Example 66, 1-cyclobutyl-4-({3-[(6-methoxypyrazin-2-yl)oxy]azetidin-1-yl}carbonyl)-1,4-diazepane]: the IC50 was < 100 nM.

Consider `Cc1nn(C)c(C)c1-c1ccc(OC2CN(C(=O)N3CCCN(C4CCC4)CC3)C2)cc1` [Example 150, 1-cyclobutyl-4-({3-[4-(1,3,5-trimethyl-1H-pyrazol-4-yl)phenoxy]azetidin-1-yl}carbonyl)-1,4-diazepane], for which the IC50 is < 100 nM.

Take `O=C(NC1CN(C(=O)N2CCCN(C3CCC3)CC2)C1)C1CCCCC1` [Example 141, N-{1-[(4-cyclobutyl-1,4-diazepan-1-yl)carbonyl]azetidin-3-yl}cyclohexanecarboxamide]: the IC50 was < 100 nM.

`COC1CN(C(=O)N2CCCN(C3CCC3)CC2)C1` [Example 96, 1-cyclobutyl-4-[(3-methoxyazetidin-1-yl)carbonyl]-1,4-diazepane]: the half-inhibitory concentration (IC50) was < 100 nM.

`C#CCOC1CN(C(=O)N2CCCN(C3CCC3)CC2)C1` [Example 99, 1-cyclobutyl-4-{[3-(prop-2-yn-1-yloxy)azetidin-1-yl]carbonyl}-1,4-diazepane]: the IC50 was < 100 nM.

Consider `O=C1CC(C(=O)N2CCCN(C3CCC3)CC2)C1` [Example 100, 3-[(4-cyclobutyl-1,4-diazepan-1-yl)carbonyl]cyclobutanone], for which the IC50 was < 100 nM.

For `CN1CCc2cc(OC3CN(C(=O)N4CCCN(C5CCC5)CC4)C3)ccc2C1=O` [Example 117, 6-({1-[(4-cyclobutyl-1,4-diazepan-1-yl)carbonyl]azetidin-3-yl}oxy)-2-methyl-3,4-dihydroisoquinolin-1(2H)-one], the concentration for half-maximal inhibition (IC50) was < 100 nM.

As to `O=C(N1CCCN(C2CCC2)CC1)N1CC(Oc2ccc(CN3CCC(F)(F)CC3)cc2)C1` [Example 21, 1-cyclobutyl-4-[(3-{4-[(4,4-difluoropiperidin-1-yl)methyl]phenoxy}azetidin-1-yl)carbonyl]-1,4-diazepane], the IC50 is < 100 nM.

Consider `O=C(N1CCN(C2CCC2)CC1)N1CC(O)C1` [Example 2, 1-[(4-cyclobutylpiperazin-1-yl)carbonyl]azetidin-3-ol], for which the IC50 fell in the range of 500 to 5000 nM.

With `O=C(N1CCN(C2CCC2)CC1)N1CC(Oc2ccc(C(F)(F)F)cc2)C1` [Example 39, 1-cyclobutyl-4-({3-[4-(trifluoromethyl)phenoxy]azetidin-1-yl}carbonyl)piperazine], the concentration for half-maximal inhibition (IC50) was < 100 nM.

`CNC(=O)c1ccc(OC2CN(C(=O)N3CCCN(C4CCC4)CC3)C2)cc1F` [Example 47, 4-({1-[(4-cyclobutyl-1,4-diazepan-1-yl)carbonyl]azetidin-3-yl}oxy)-2-fluoro-N-methylbenzamide]: the IC50 is < 100 nM.

Regarding `Cc1ccc(OC2CN(C(=O)N3CCCN(C4CCC4)CC3)C2)cn1` [Example 121, 1-cyclobutyl-4-({3-[(6-methylpyridin-3-yl)oxy]azetidin-1-yl}carbonyl)-1,4-diazepane], the IC50 was < 100 nM.

As to `O=C(N1CCCN(C2CCC2)CC1)N1CC(Oc2ccc(Cl)c(Cl)c2)C1` [Example 23, 1-cyclobutyl-4-{[3-(3,4-dichlorophenoxy)azetidin-1-yl]carbonyl}-1,4-diazepane], the IC50 was < 100 nM.

For the molecule `CNC(=O)c1ccc(OC2CN(C(=O)N3CCCN(C4CCC4)CC3)C2)nc1` [Example 3, 6-({1-[(4-cyclobutyl-1,4-diazepan-1-yl)carbonyl]azetidin-3-yl}oxy)-N-methylpyridine-3-carboxamide], the half-maximal inhibitory concentration (IC50) was < 100 nM.

Take `COc1cncc(OC2CN(C(=O)N3CCCN(C4CCC4)CC3)C2)c1` [Example 82, 1-cyclobutyl-4-({3-[(5-methoxypyridin-3-yl)oxy]azetidin-1-yl}carbonyl)-1,4-diazepane]: the IC50 is < 100 nM.

Turning to `CN(C)c1cc(OC2CN(C(=O)N3CCCN(C4CCC4)CC3)C2)ccn1` [Example 58, 4-({1-[(4-cyclobutyl-1,4-diazepan-1-yl)carbonyl]azetidin-3-yl}oxy)-N,N-dimethylpyridin-2-amine], the 50% inhibitory concentration (IC50) was < 100 nM.

For `O=C(N1CCCN(C2CCC2)CC1)N1CC(Oc2ccc(C(F)(F)F)cn2)C1` [Example 11, 1-cyclobutyl-4-[(3-{[5-(trifluoromethyl)pyridin-2-yl]oxy}azetidin-1-yl)carbonyl]-1,4-diazepane], the IC50 is < 100 nM.

For the molecule `CNC(=O)c1ccc(OC2CN(C(=O)N3CCCN(C)CC3)C2)cn1` [Example 113, 5-({1-[(4-methyl-1,4-diazepan-1-yl)carbonyl]azetidin-3-yl}oxy)-N-methylpyridine-2-carboxamide], the concentration for half-maximal inhibition (IC50) lay within 500 to 5000 nM.

For the molecule `O=C(C1CN(C(=O)N2CCCN(C3CCC3)CC2)C1)N1CCC(F)(F)CC1` [Example 130, 1-cyclobutyl-4-({3-[(4,4-difluoropiperidin-1-yl)carbonyl]azetidin-1-yl}carbonyl)-1,4-diazepane], the IC50 was < 100 nM.

As to `O=C(N1CCCN(C2CCC2)CC1)N1CC(Oc2ccn3ccnc3c2)C1` [Example 71, 7-({1-[(4-cyclobutyl-1,4-diazepan-1-yl)carbonyl]azetidin-3-yl}oxy)imidazo[1,2-a]pyridine], the concentration for half-maximal inhibition (IC50) was < 100 nM.

Take `O=C(N1CCCN(C2CCC2)CC1)N1CC(Oc2cncc(Cl)c2)C1` [Example 80, 1-({3-[(5-chloropyridin-3-yl)oxy]azetidin-1-yl}carbonyl)-4-cyclobutyl-1,4-diazepane]: the IC50 was < 100 nM.

Take `O=C(N1CCCN(C2CCC2)CC1)N1CC(Oc2ccc(OC(F)(F)F)cc2)C1` [Example 88, 1-cyclobutyl-4-({3-[4-(trifluoromethoxy)phenoxy]azetidin-1-yl}carbonyl)-1,4-diazepane]: the half-inhibitory concentration (IC50) is < 100 nM.

On to `O=C(NCC1CC1)c1ccc(OC2CN(C(=O)N3CCCN(C4CCC4)CC3)C2)cn1` [Example 35, 5-({1-[(4-cyclobutyl-1,4-diazepan-1-yl)carbonyl]azetidin-3-yl}oxy)-N-(cyclopropylmethyl)pyridine-2-carboxamide], for which the half-maximal inhibitory concentration (IC50) was < 100 nM.

In the case of `O=C(N1CCCN(C2CCC2)CC1)N1CC(Oc2ccc(C(F)(F)F)cc2)C1` [Example 10, 1-cyclobutyl-4-({3-[4-(trifluoromethyl)phenoxy]azetidin-1-yl}carbonyl)-1,4-diazepane], the half-maximal inhibitory concentration (IC50) is < 100 nM.
